# Assays:
# DU-145 = experiment: Cytotoxicity against human DU145 cells; format: functional
# P388 = experiment: Cytotoxicity against mouse P388 cells; format: functional; settings: read-out: ED50 (the source's name)
Compound,GI50 (DU-145) [µg/mL],EC50 (P388) [µg/mL]
CC[C@H](C)[C@@H](OC(=O)[C@@H](NC(=O)[C@H](C)OC(=O)[C@H](NC(=O)[C@H](OC(=O)[C@@H](NC(=O)[C@@H](C)OCc1ccccc1)C(C)C)[C@@H](C)CC)C(C)C)C(C)C)C(=O)N[C@@H](C(=O)OC(C)(C)C)C(C)C,10.5,–
CC[C@H](C)[C@@H](OC(=O)[C@@H](NC(=O)[C@H](C)O)C(C)C)C(=O)N[C@@H](C(=O)O[C@@H](C)C(=O)N[C@H](C(=O)O[C@@H](C(=O)N[C@@H](C(=O)O[C@@H](C)C(=O)N[C@H](C(=O)O[C@H](CC(C)C)C(=O)N[C@@H](C(=O)OC(C)(C)C)C(C)C)C(C)C)C(C)C)[C@@H](C)CC)C(C)C)C(C)C,–,2
CC[C@H](C)[C@@H](OC(=O)[C@@H](NC(=O)[C@H](C)OCc1ccccc1)C(C)C)C(=O)N[C@@H](C(=O)O[C@@H](C)C(=O)N[C@H](C(=O)O[C@@H](C(=O)N[C@@H](C(=O)O[C@@H](C)C(=O)N[C@H](C(=O)O[C@H](CC(C)C)C(=O)N[C@@H](C(=O)OC(C)(C)C)C(C)C)C(C)C)C(C)C)[C@@H](C)CC)C(C)C)C(C)C,–,2.1
